“Also recorded” adds a separate entry of the source.

One test addresses β1-adrenergic receptor (Homo sapiens, UniProt P08588). The test can be described thus: Binding-displacement at β1-adrenergic receptor (FIG. 2D). The conditions noted are these: membranes or solubilized receptor; 10 μM unlabeled ligand. The method, then:
The β1-adrenergic receptor, either in the membranes or solubilized (according to the invention), was incubated with the radiolabeled ligand, iodocyanopindolol, at a set concentration, in the presence or absence of 10 μM unlabeled ligand (pindolol). In the absence of unlabeled ligand, maximal binding of the radiolabeled ligand is observed.

The target in test [1] is T1, CCR5 (Homo sapiens, UniProt P51681, L55Q).
T1 construct: made in house; host or cells: insect cells (Sf9 / High Five), baculovirus
T1 sequence (P51681 1-352 L55Q): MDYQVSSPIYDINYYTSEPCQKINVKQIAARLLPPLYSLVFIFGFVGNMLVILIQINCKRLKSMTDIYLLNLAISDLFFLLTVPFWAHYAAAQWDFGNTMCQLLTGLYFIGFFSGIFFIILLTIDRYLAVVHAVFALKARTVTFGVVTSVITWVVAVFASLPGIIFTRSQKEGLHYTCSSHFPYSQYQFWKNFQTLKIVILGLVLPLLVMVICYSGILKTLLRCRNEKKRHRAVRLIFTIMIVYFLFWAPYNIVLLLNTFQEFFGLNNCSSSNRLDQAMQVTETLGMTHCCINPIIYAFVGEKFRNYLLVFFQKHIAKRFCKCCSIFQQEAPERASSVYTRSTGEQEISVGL
The test can be described thus: Binding-displacement of radiolabeled MIP-1β at CCR5 (FIG. 2A). The conditions noted are these: CCR5 in membranes or solubilized and immobilized; various concentrations. The method, then:
The CCR5 receptor, either in membranes or solubilized and immobilized onto the column, was incubated with the radiolabeled ligand, MIP-1β, at a set concentration, in the presence of various concentrations of the unlabeled ligand, MIP-1α. […] This displacement of the radioligand with increasing concentrations of unlabeled ligand gave a standard sigmoidal shaped curve. The two curves, one for the membrane binding-displacement and one for the binding-displacement for the immobilized receptor were substantially similar (within the experimental error), indicating similar functional conformation of the receptor in the membranes and immobilized receptor.

In test [2] the test system is CCR5. The test can be described thus: Affinity purification of THP-1 culture supernatant HPLC fractions on immobilized CCR5, silver stain/mass spectrometry. In kind it is binding. The conditions noted are these: LPS-induced THP-1 supernatant, RP-HPLC fractions. The method, then: Expressed CCR5-GST was immobilized in the same fashion as described above using a glutathione-sepharose resin. THP-1 cells, a monocytic cell line, were induced with lipopolysaccharide (LPS) from E. coli extracts (Sigma, St. Louis, Mo.), and grown for 48 hours. THP-1 cells were selected for the purpose of this experiment because THP-1 cells are a general monocytic cell line that expresses CCR5 (the receptor of interest). Also, THP-1 cells, and other monocytes are involved in the inflammatory process and migrate to sites of inflammation in response to a chemokine gradient. These cells can also be induced to produce more chemokines by using reagents such as lipopolysaccharide (LPS) from E. coli.
The THP-1 cells were harvested by centrifugation. […] The quantity of RANTES quantitatively determined to be approximately 1 μg in approximately 2-3 L. These crude fractions or pools were purified by CCR5 affinity columns and by incubating with the immobilized CCR5. […]
The CCR5 with column fractions were compared to CCR5-only controls because there are proteins that non-specifically bind to the column, and because the CCR5 receptor and any contaminants present in the preparation can be seen as protein bands. […] Therefore, bands that were detected only in the fraction samples were submitted for sequencing and identified by mass spectrometry. […]

Test [3] relates to CCR5. The test can be described thus: Ligand mixture incubated with immobilized CCR5, western blot detection. In kind it is binding. The conditions noted are these: mixture of RANTES, MDC, gonadotropin releasing hormone. The method, then:
CCR5 was obtained and prepared with a GST tag bound to glutathione column according to the steps provided in Example 1. Thereafter, a ligand mixture (RANTES, MDC, gonadotropin releasing hormone) was incubated with immobilized CCR5 to determine which ligands bound to the receptor. After washing to remove non-specific binding, the SDS-PAGE sample buffer was added to each, boiled for 1 minute, and loaded onto an SDS-PAGE gel. In order to analyze the beads, SDS-PAGE was performed on the various samples and transferred to nitrocellulose by western blotting to determine which ligands were bound. Duplicate samples were run, one group for detection with anti-RANTES antibody and one group for detection with anti-MDC antibody.
The molecular weights (in kDa) as determined by the standards are listed on the left side of the blot. The individual lanes are numbered across the top of the blot. Lanes 1-4 were developed with anti-RANTES antibody. […] The band at approximately 8 kDa is RANTES. […] Lane 3 is a RANTES standard (positive control). Lane 4 is the MDC (macrophage-derived chemokine) standard (negative control—[…]). Lanes 5-8 were developed with anti-MDC (macrophage-derived chemokine, a CCR4 ligand ) antibody. […] Lane 6 is the same as lane 2 but developed with anti-MDC antibody. Lane 7 is RANTES standard and Lane 8 is MDC standard. […]

Test [4] has as its system CCR5. The test can be described thus: Affinity de-orphaning: in vitro translated cDNA pool incubated with immobilized CCR5-GST, SDS-PAGE/phosphorimage. In kind it is binding. The conditions noted are these: human lung cDNA library spiked with RANTES, [35S]-Met, CCR5 on sepharose beads. The method, then: CCR5 was obtained and prepared with a GST tag according to the steps provided in Example 1. CCR5-GST was immobilized on a glutathione column using the GST tag, and incubated with ligands obtained using in vitro translation of small pools of approximately 100 clones from a cDNA library. […] Thereafter, a human lung cDNA library was spiked with RANTES and was transcribed and translated in vitro using the TNT Quick Coupled Wheat Germ kit, available from Promega Corporation (Madison, Wis.) with [^35S]-Met. RANTES cDNA alone was used as a positive control for translation and binding experiments.
A human lung cDNA library was chosen because RANTES was originally isolated from a human lung library. Also, libraries derived from tissues having an abundant number of immune cells, such as spleen and thymus tissues also are possible sources. The cDNA was in a bacterial host (E. coli). In general, the clones were transcribed and translated, and a mixture of their respective proteins was produced in a concentrated sample. This sample then was then probed with a receptor (i.e., CCR5) to determine if there are any proteins in the pool that can bind to the receptor of interest. The concentration was approximately 5×10^9 colony forming units per ml. Thus, dilution was necessary to dilute the number of clones to approximately 100 per pool. […]

The target in a further test is T2, C5a receptor (Homo sapiens, UniProt P21730).
T2 sequence (P21730 1-350): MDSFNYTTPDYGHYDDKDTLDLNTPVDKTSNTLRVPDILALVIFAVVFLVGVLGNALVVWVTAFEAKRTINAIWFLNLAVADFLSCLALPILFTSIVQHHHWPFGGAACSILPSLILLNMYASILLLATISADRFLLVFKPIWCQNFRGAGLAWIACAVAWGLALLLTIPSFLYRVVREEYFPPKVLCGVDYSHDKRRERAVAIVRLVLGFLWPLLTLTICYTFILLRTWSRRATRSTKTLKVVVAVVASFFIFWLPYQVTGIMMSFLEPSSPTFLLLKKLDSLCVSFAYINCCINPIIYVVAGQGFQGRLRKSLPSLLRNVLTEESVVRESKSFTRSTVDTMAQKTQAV
The test can be described thus: Binding-displacement at C5a receptor (FIG. 2E). The conditions noted are these: membranes or solubilized receptor; 10 μM unlabeled ligand. The method, then:
[…], either in the membranes or solubilized (according to the invention), was incubated with the radiolabeled ligand, C5a, at a set concentration, in the presence or absence of 10 μM unlabeled ligand (C5a). In the absence of unlabeled ligand, maximal binding of the radiolabeled ligand is observed.

In test [5] the target is CCR5. The conditions noted are these: CCR5 membrane preparations; value obtained by Receptor Biology, own preparations comparable; read-out: Kd for MIP1-β binding; cited from earlier work.

Chain of β1-adrenergic receptor (P08588 whole entry, species assumed): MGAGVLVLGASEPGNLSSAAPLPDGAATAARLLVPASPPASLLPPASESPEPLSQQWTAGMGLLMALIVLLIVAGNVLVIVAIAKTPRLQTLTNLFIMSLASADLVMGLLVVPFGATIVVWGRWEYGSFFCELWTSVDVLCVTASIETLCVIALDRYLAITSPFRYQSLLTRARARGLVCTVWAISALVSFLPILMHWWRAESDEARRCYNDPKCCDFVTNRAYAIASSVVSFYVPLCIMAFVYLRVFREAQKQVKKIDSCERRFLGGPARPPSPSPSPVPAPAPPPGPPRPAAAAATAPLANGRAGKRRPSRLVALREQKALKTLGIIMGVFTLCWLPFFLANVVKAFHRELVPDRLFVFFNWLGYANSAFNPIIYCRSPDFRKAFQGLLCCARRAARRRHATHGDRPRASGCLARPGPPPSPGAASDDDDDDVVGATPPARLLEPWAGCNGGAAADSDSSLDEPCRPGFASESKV

On to `CC(C)NCC(O)COc1cccc2[nH]ccc12` (stereo not drawn) [pindolol], for which the “displacement of radiolabeled iodocyanopindolol by unlabeled ligand” value on β1-adrenergic receptor is listed as “displacement of the radiolabeled ligand down to background levels”. For the molecule “MIP-1α: natural ligand for CCR5, unlabeled competing ligand”, the “displacement of radiolabeled MIP-1β by unlabeled ligand” value with CCR5 [1] is reported as “displaced more of the radiolabeled ligand”. On to RANTES: a natural ligand for CCR5, for which the “ligand bound to immobilized CCR5, identified by mass spectrometry” value with CCR5 [2] was “ligand for CCR5”. For the same molecule, the “binding to immobilized CCR5 from ligand mixture” value in the test with CCR5 [3] is “specifically binds to the CCR5 receptor; also recorded: bound specifically to CCR5”. Moreover, the “binding of translated ligand to immobilized CCR5” value in the test with CCR5 [4] is “binding was observed”. For “statherin: second binder identified from THP-1 supernatant on CCR5 (DSSEEKFLRRIGRFGYGYGPYQPVPEQPLYPQPYQPQYQQYTF; UniProt P02808 20-62, looked up)”, in the test with CCR5 [2], the “ligand bound to immobilized CCR5, identified by mass spectrometry” value was “binder”.

B1: C5a: ligand of the C5a receptor (protein, UniProt P01031 678-751, looked up)
C5a anaphylatoxin: TLQKKIEEIAAKYKHSVVKKCCYDGACVNNDETCEQRAARISLGPRCIKAFTECCVVASQLRANISHKDMQLGR
modifications: C5a anaphylatoxin
notes: ligand of the C5a receptor
Turning to B1, the “displacement of radiolabeled C5a by unlabeled ligand” value with C5a receptor is reported as “displacement of the radiolabeled ligand down to background levels”.

B2: MDC: macrophage-derived chemokine, a CCR4 ligand (protein, UniProt O00626 25-93, looked up)
C-C motif chemokine 22: GPYGANMEDSVCCRDYVRYRLPLRVVKHFYWTSDSCPRPGVVLLTFRDKEICADPRVPWVKMILNKLSQ
Turning to B2, in the test on CCR5 [3], the “binding to immobilized CCR5 from ligand mixture” value is recorded as “does not bind to CCR5”.

B3: MIP1-β: natural ligand for CCR5, used as radioligand (protein, UniProt P13236 24-92, looked up)
C-C motif chemokine 4: APMGSDPPTACCFSYTARKLPRNFVVDYYETSSLCSQPAVVFQTKRSKQVCADPSESWVQEYVYDLELN
modifications: also: radiolabel
Broadly, the Kd is the concentration at which binding is half-saturated. Turning to B3, the Kd on CCR5 [5] was below 1 nM.

These data come from patent publication US20020192711A1, “Methods for identifying ligands of G-Protein-Coupled receptors” (priority 2001, published 2002).
